These results are taken from patent US10441669B2, “Multifunctional chelators, complexes, and compositions thereof, and methods of using same” (ILLINOIS INSTITUTE OF TECHNOLOGY, priority 2013, dated 2019).

Series [1] can be described thus: EDTA challenge of 64Cu-radiolabeled complexes of chelators A-F. In kind it is physicochemical. To be noted: EDTA 100-fold molar excess; for Bound complex (%): 64Cu complex, 37° C. How it is done:
^64Cu-radiolabeled complexes were further evaluated for complex stability based on EDTA challenge. ^64Cu-radiolabeled complexes were freshly prepared and treated with a solution of EDTA at a 100-fold molar excess, and the resulting solution (pH 5.5) was incubated at 37° C. for 24 h. […] Among the complexes tested, ^64Cu-radiolabeled pentadentate chelator B was least tolerant of EDTA treated, and most of ^64Cu was dissociated from the complex (˜80%) at 24 h time point. ^64Cu-radiolabeled chelator C containing the carbonyl donor group was found dissociated rapidly in the presence of the excess EDTA, and 50% of the activity was transchelated by EDTA at 1 h time point. ^64Cu-radiolabeled chelators D and F with the respective hydroxyl and thiophenyl donor group were slower in dissociation than ^64Cu-radiolabeled chelators B and C and released >45% of ^64Cu at 24 h time point. Dissociation of the activity from the ^64Cu-radiolabeled chelators was also measured using radio-HPLC at 25 h time point (FIG. 5). The peak related to ^64Cu-EDTA (tR=2.5 min) was clearly separated from bound ^64Cu complex of the chelators. ^64Cu-radiolabeled complex of polar chelators E and F have the respective retention time at […] and 6.2 min, while other ^64Cu-radiolabeled complexes have similar retention time (tR=7˜8 min). The ^64Cu-radiolabeled chelators C and D gave a small peak (tR=˜3 min and tR=˜7 min, respectively).
^64Cu-radiolabeled complexes were prepared by reaction of each chelator (20 μg) with ^64Cu (60 μCi) in 0.25M NH4OAc buffer (pH 5.5) for 2 h at room temperature. The radiolabeled complexes were prepared as described above and directly used for the experiments. ^64Cu-radiolabeled complex was mixed with EDTA at a 100-fold molar excess. The resulting mixture was incubated for 24 h at 37° C. The stability of ^64Cu-radiolabeled complexes in the solution was evaluated using ITLC (20 mM EDTA in 0.15M NH4OAc). A solution of the radiolabeled complex in serum (3˜20 μL) was withdrawn at the designated time points and evaluated by ITLC as described above. Stability of the complexes was also evaluated at 25 h time point by HPLC (solvent A: 0.1% TFA in H2O, solvent B: 0.1% TFA in CH3CN, 0-100% B/15 min, flow rate: 1 mL/min). ^64Cu-EDTA complex was eluted early (tR=˜2.5 min), while ^64Cu-radiolabeled complexes of chelators A-D, E, and F have the respective retention time (tR=7˜8 min, tR=4.6 min, and tR=6.2 min).

Series [2] in a line: In vitro serum stability of 177Lu-radiolabeled bimodal chelator complexes. To be noted: 177Lu complex, human serum, pH 7, 37° C. In kind it is in vitro ADME.
A short description of series [3]: EDTA challenge of 177Lu-radiolabeled pyridyl chelators. To be noted: 37° C.; for stability of 177Lu complex in EDTA solution: EDTA 100-fold molar excess, 24 h; for Bound (%): Lu-177 complex, EDTA solution 100-fold molar excess. Type of series: physicochemical. Here is the method: (§1) ^64Cu- or ^177Lu-radiolabeled complexes were prepared by reaction of each chelator (20 μg) with ^64Cu or ^177Lu (60 μCi) in 0.25M NH4OAc buffer (pH 5.5) for 2 h at room temperature. The radiolabeled complexes were prepared as described above and directly used for the experiments. The radiolabeled complex was mixed with EDTA at a 100-fold molar excess. The resulting mixture was incubated for 24 h at 37° C. The stability of ^64Cu-radiolabeled complexes in the solution was evaluated using ITLC (20 mM EDTA in 0.15M NH40OAc).

A short description of series [4]: Serum stability of 64Cu-radiolabeled complexes of pyridyl chelators. Type of series: in vitro ADME. As to conditions: 64Cu complex, human serum, 37° C. How it is done: In vitro serum stability of the radiolabeled complexes was performed to determine if the chelators radiolabeled with ^64Cu remained stable without loss of the radioactivity in human serum as described above. All ^64Cu-radiolabeled chelators remained intact in human serum for 2 days as evidenced by ITLC and HPLC analysis.

Series [5] can be described thus: EDTA challenge of 64Cu-radiolabeled pyridyl chelator. Type of series: physicochemical. As to conditions: 37° C.; for Bound (%): Cu-64 complex, EDTA solution 100-fold molar excess. Here is the method:
as §1

Series [6] is described as follows: In vitro serum stability of 90Y-radiolabeled bimodal chelator complexes. Type of series: in vitro ADME. As to conditions: 90Y complex, human serum, pH 7, 37° C. Here is the method: Human serum was purchased from Gemini Bioproducts (#100110). The radiolabeled complexes was prepared and directly used for serum stability studies without further purification. The stability of the pure radiolabeled complexes in human serum was evaluated at 37° C. for 2 weeks. The serum stability of the radiolabeled complexes was assessed by measuring the transfer of the radionuclide from each complex to serum proteins using ITLC (acetonitrile/water (3:2 v/v). A solution of the radiolabeled complex in serum (5-16 μL for ITLC) was withdrawn at the designated time point and evaluated by ITLC. At each of the time points, the percentage of ^90Y released from each of the radiolabeled complexes into serum was assessed by ITLC.

For `O=C(O)CN1CCN(CCCc2ccc([N+](=O)[O-])cc2)CCN(CC(=O)O)CC1` [Chelator B, 2-[4-(carboxymethyl)-7-[3-(4-nitrophenyl)propyl]-1,4,7-triazonan-1-yl]acetic acid], the “Bound complex (%)” value was found to be 99.9 ± 0.1% in series [1] (pH 5.5, ITLC, 0 h); 90.4 ± 0.1% in series [1] (pH 5.5, ITLC, 1 h); 69.2 ± 0.3% in series [1] (pH 5.5, ITLC, 4 h); 22.9 ± 2.1% in series [1] (pH 5.5, ITLC, 19 h); 19.4 ± 1.1% in series [1] (pH 5.5, ITLC, 24 h); 11.9 ± 0.6% in series [1] (pH 5.5, radio-HPLC, 25 h). Moreover, the “64Cu activity dissociated from the complex / transferred to EDTA” value in series [1] (24 h time point) is on record as approximately 80%.

Turning to `O=C(O)CN(CCN1CCN(CCN(CC(=O)O)CC(=O)O)CCN(CC(CCCc2ccc([N+](=O)[O-])cc2)N(CC(=O)O)CC(=O)O)CC1)CC(=O)O` (stereo not drawn) [Chelator 2, 2-{[2-(4-{2-[bis(carboxymethyl)amino]-5-(4-nitrophenyl)pentyl}-7-{2-[bis(carboxy-methyl)amino]ethyl}-1,4,7-triazonan-1-yl)ethyl](carboxymethyl)amino}acetic acid], the “Bound radiolabeled complex (%)” value in series [2] (0 hour) is 99.9 ± 0.0%.

Take `O=C(O)CN1CCN(CC(=O)O)CCN(CC(O)CCc2ccc([N+](=O)[O-])cc2)CC1` (stereo not drawn) [Chelator D, 2-[4-(carboxymethyl)-7-[2-hydroxy-4-(4-nitrophenyl)butyl]-1,4,7-triazonan-1-yl]acetic acid]: the “Bound complex (%)” value in series [1] (pH 5.5, ITLC, 0 h) amounted to 99.5 ± 0.3%; in series [1] (pH 5.5, ITLC, 1 h), 86.8 ± 0.7%; in series [1] (pH 5.5, ITLC, 4 h) it was 79.1 ± 0.4%; in series [1] (pH 5.5, ITLC, 19 h), 59.3 ± 0.0%; in series [1] (pH 5.5, ITLC, 24 h), 55.0 ± 0.6%; in series [1] (pH 5.5, radio-HPLC, 25 h), 41.0 ± 2.6%.

As to `NCCCNC(=O)c1ccc(CN(CCN2CCN(CC(=O)O)CCN(CC(=O)O)CC2)CC(=O)O)nc1` [Chelator 10], the “stability of 177Lu complex in EDTA solution” value in series [3] is reported as “remained stable in EDTA solution without releasing significant amount of the radioactivity”. The “Bound (%)” value in series [3] (pH 5.5, 0 hour) was determined as 99.8%; in series [3] (pH 5.5, 1 hour) it was 95.7%; in series [3] (pH 5.5, 6 hour), 94.9%; in series [3] (pH 5.5, 24 hour), 94.6%. Moreover, the “Bound complex (%)” value in series [4] (pH 7, HPLC, 0 hour) is listed as “(98.3 ± 2.0) %”; in series [4] (pH 7, HPLC, 19 hour) it was “(96.7 ± 0.0) %”; in series [4] (pH 7, HPLC, 48 hour), “(97.2 ± 0.21) %”; in series [4] (pH 7, ITLC, 0 hour) it was 99.9 ± 0.07%; in series [4] (pH 7, ITLC, 19 hour) it was 99.8 ± 0.14%; in series [4] (pH 7, ITLC, 48 hour), 99.9 ± 0.0%.

Take `O=C(O)CN1CCN(CC(=O)O)CCN(CC(=O)CCc2ccc([N+](=O)[O-])cc2)CC1` [Chelator C, 2-[4-(carboxymethyl)-7-[4-(4-nitrophenyl)-2-oxobutyl]-1,4,7-triazonan-1-yl]acetic acid]: the “Bound complex (%)” value in series [1] (pH 5.5, ITLC, 0 h) is on record as 97.7 ± 0.2%; in series [1] (pH 5.5, ITLC, 1 h) it was 50.4 ± 0.4%; in series [1] (pH 5.5, ITLC, 4 h), 45.8 ± 1.5%; in series [1] (pH 5.5, ITLC, 19 h), 41.0 ± 0.4%; in series [1] (pH 5.5, ITLC, 24 h), 39.0 ± 0.2%; in series [1] (pH 5.5, radio-HPLC, 25 h) it was 21.7 ± 1.3%. In addition, in series [1] (1 h time point), the “64Cu activity transchelated by EDTA” value amounted to 50%.

Regarding `O=C(O)CN1CCN(CCN(CC(=O)O)Cc2ccccn2)CCN(CC(=O)O)CC1` [Chelator 4], in series [3], the “stability of 177Lu complex in EDTA solution” value is on record as “remained stable in EDTA solution without releasing significant amount of the radioactivity”. Also, the “Bound (%)” value in series [3] (pH 5.5, 0 hour) came to 99.8%; in series [3] (pH 5.5, 1 hour), 99.5%; in series [3] (pH 5.5, 6 hour), 99.2%; in series [3] (pH 5.5, 24 hour), 98.3%. Further, the “Bound complex (%)” value is on record as “(99.9 ± 0.0) %” in series [4] (pH 7, HPLC, 0 hour); “(99.9 ± 0.07) %” in series [4] (pH 7, HPLC, 19 hour); “(100.0 ± 0.0) %” in series [4] (pH 7, HPLC, 48 hour); 99.9 ± 0.0% in series [4] (pH 7, ITLC, 0 hour); 100 ± 0.0% in series [4] (pH 7, ITLC, 19 hour); 100 ± 0.07% in series [4] (pH 7, ITLC, 48 hour).

Take `NCCCNC(=O)c1ccc(CN2CCN(CC(=O)O)CCN(CC(=O)O)CC2)nc1` [Chelator 13]: the “Bound (%)” value is 100 ± 0.07% in series [5] (pH 5.5, 0 hour); 99.9 ± 0.07% in series [5] (pH 5.5, 1 hour); 99.2 ± 0.42% in series [5] (pH 5.5, 24 hour). In addition, the “stability of 64Cu complex in EDTA challenge” value in series [5] (EDTA 100-fold molar excess, 24 h) is recorded as “extremely stable in EDTA challenge”. The “Bound complex (%)” value is on record as “(100 ± 0.0) %” in series [4] (pH 7, HPLC, 0 hour); “(100 ± 0.0) %” in series [4] (pH 7, HPLC, 19 hour); “(100 ± 0.0) %” in series [4] (pH 7, HPLC, 48 hour); 100.0 ± 0.07% in series [4] (pH 7, ITLC, 0 hour); 100.0 ± 0.0^ % in series [4] (pH 7, ITLC, 19 hour); 99.9 ± 0.07% in series [4] (pH 7, ITLC, 48 hour).

With `O=C(O)CN1CCN(CCN(CC(=O)O)CC(=O)O)CCN(CC(CCCc2ccc([N+](=O)[O-])cc2)N(CC(=O)O)CC(=O)O)CC1` (stereo not drawn) [Chelator 1], the “Bound radiolabeled complex (%)” value came out at 100 ± 0.07% in series [2] (0 hour); 100 ± 0.00% in series [2] (312 hour); 100 ± 0.00% in series [6] (0 hour); 98.9 ± 1.34% in series [6] (262 hour); 97.3 ± 2.92% in series [6] (286 hour); 97.2 ± 2.46% in series [6] (313 hour). In series [6] (336 hour), the “Bound radiolabeled complex (%)” value worked out at 98.4 ± 0.67%.

As to `O=C(O)CN1CCN(CC(=O)O)CCN(Cc2cccs2)CC1` [Chelator F, 2-[4-(carboxymethyl)-7-(thiophen-2-ylmethyl)-1,4,7-triazonan-1-yl]acetic acid], the “Bound complex (%)” value in series [1] (pH 5.5, ITLC, 0 h) is 100 ± 0.1%; in series [1] (pH 5.5, ITLC, 1 h), 95.7 ± 0.5%; in series [1] (pH 5.5, ITLC, 4 h), 87.5 ± 0.4%; in series [1] (pH 5.5, ITLC, 19 h), 59.5 ± 0.6%; in series [1] (pH 5.5, ITLC, 24 h), 53.4 ± 1.7%; in series [1] (pH 5.5, radio-HPLC, 25 h) it was 42.3 ± 0.3%.
